Measurements reported in patent publication US10875829B1, “Azetidine derivatives useful as modulators of cortical catecholaminergic neurotransmission” (Integrative Research Laboratories Sweden AB, priority 2016, dated 2020).
pIC50: −log10 of the molar value. Structures can show the parent of a compound that is named as a salt. Marks after values point to notes of the source that are not given here.

Experiments:
[1] = molecular target: Human Dopamine Transporter (DAT (h)) (Homo sapiens (Human), UniProt Q01959); assay: Radioligand binding assay, human dopamine transporter ([3H]BTCP); details: for inhibition at 10 µM: 2 h, single concentration 1.0 E-5 M, duplicate, mean values; for pIC50: dose-response curves
Chain of Human Dopamine Transporter (DAT (h)) (Q01959 whole entry): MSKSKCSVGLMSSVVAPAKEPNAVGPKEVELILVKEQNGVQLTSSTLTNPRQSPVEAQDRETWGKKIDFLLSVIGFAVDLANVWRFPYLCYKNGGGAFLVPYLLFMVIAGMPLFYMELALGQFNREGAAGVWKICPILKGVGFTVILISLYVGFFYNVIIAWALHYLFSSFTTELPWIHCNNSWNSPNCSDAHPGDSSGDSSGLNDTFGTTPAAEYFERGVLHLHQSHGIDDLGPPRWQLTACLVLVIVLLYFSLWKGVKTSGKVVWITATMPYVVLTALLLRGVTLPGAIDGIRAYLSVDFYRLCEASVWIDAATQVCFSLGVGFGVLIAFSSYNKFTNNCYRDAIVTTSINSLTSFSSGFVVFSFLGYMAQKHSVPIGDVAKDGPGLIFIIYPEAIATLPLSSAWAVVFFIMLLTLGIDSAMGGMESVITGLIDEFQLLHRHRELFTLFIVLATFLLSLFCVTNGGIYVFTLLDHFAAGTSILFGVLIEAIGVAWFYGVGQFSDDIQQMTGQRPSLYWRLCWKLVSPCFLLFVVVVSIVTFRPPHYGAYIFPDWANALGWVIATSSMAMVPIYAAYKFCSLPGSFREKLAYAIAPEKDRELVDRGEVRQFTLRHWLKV
Description: (The measurement was performed as described in Pristuba, Z. B., Wilson, J. M., Hoffman, B. J., Kish, S. J. and Nisnik, H. B. (1994), Pharmacological heterogeneity of the cloned and native human dopamine transporter: disassociation of [3H]WIN 35,428 and [3H]GBR 12,935 binding, Mol. Pharmacol., 45: 125)
Cell membrane homogenates (20 μg protein) are incubated for 120 min at 4° C. with 4 nM
[3H]BTCP in the absence or presence of the test compound in a buffer containing 50 mM Tris-HCl (pH 7.4) and 100 mM NaCl. Nonspecific binding is determined in the presence of 10 μM BTCP. Following incubation, the samples are filtered rapidly under vacuum through glass fiber filters (GF/B, Packard) presoaked with 0.3% PEI and rinsed several times with ice-cold 50 mM Tris-HCl using a 96-sample cell harvester (Unifilter, Packard). The filters are dried then counted for radioactivity in a scintillation counter (Topcount, Packard) using a scintillation cocktail (Microscint 0, Packard).
(§1) The results are expressed as a percent inhibition of the control radioligand specific binding.
[…] Reported values are mean values.

[2] = test system: human alpha 2A adrenergic receptor and/or the non-selective adrenergic alpha 2 receptor; assay: In vitro binding studies, adrenergic alpha 2 receptors ([3H]RX 821002); set-up: species or system human and/or rat; details: concentration of 10 μM
Description: (The measurement was performed as described in Langin, D., Lafontan, M., Stilling, M. R. and Paris, H. (1989), [3H]RX821002: a new tool for the identification of alpha2A-adrenoceptors, Eur. J. Pharmacol. 167: 95.)
Cell membrane homogenates (48 μg protein) were incubated for 60 min at 22° C. with 1 nM [3H]RX 821002 in the absence or presence of the test compound in a buffer containing 50 mM Tris-HCl (pH 7.4), 2 mM MgCl2 and 1 mM EDTA. Nonspecific binding was determined in the presence of 100 μM (−)epinephrine. Following incubation, the samples were filtered rapidly under vacuum through glass fiber filters (GF/B, Packard) presoaked with 0.3% PEI and rinsed several times with ice-cold 50 mM Tris-HCl using a 96-sample cell harvester (Unifilter, Packard). The filters were dried then counted for radioactivity in a scintillation counter (Topcount, Packard) using a scintillation cocktail (Microscint 0, Packard).
as §1
(antagonist radioligand). Membrane homogenates (rat) of cerebral cortex (160 μg protein) were incubated for 60 min at 22° C. with 0.5 nM [3H]RX 821002 in the absence or presence of the test compound in a buffer containing 50 mM Tris-HCl (pH 7.4), 2 mM MgCl2 and 1 mM EDTA. Nonspecific binding was determined in the presence of 100 μM (−)epinephrine. Following incubation, the samples were filtered rapidly under vacuum through glass fiber filters (GF/B, Packard) presoaked with 0.3% PEI and rinsed several times with ice-cold 50 mM Tris-HCl using a 96-sample cell harvester (Unifilter, Packard). The filters were dried then counted for radioactivity in a scintillation counter (Topcount, Packard) using a scintillation cocktail (Microscint 0, Packard). The results are expressed as a percent inhibition of the control radioligand specific binding. The standard reference compound was yohimbine, which was tested in each experiment at several concentrations to obtain a competition curve from which its IC50 was calculated.

Arc mRNA = assay: m-RNA analysis: tissue levels of Arc in brain regions; assay type: in vivo, rats; details: 33 μmol/kg s.c., 65 min before sacrifice, control saline, n=5
Description: Sesack et al. (Anatom Substr Glut-Dopamine Inter. Annals of NY AcadSci, 2003, 1003; 36-52) discloses that the dopaminergic systems of the brain interact strongly with central glutamate neurotransmission. To investigate potential effects of compounds as disclosed herein on cortical and striatal NMDA type glutamate receptor related synaptic signaling, Arc mRNA induction was assessed upon acute administration. Arc (Arc/Arg3.1-activity regulated cytoskeleton-associated protein/activity-regulated gene 3.1; (Link W et al., Proc Natl Acad Sci, USA, 1995, 92; 5734-8 and Lyford G L et al., Neuron, 1995, 14; 433-45), is an immediate early gene (IEG), induced by synaptic activity, whose expression and localization at synaptic sites is triggered specifically by NMDA receptor activation and strongly related to neural plasticity (Steward and Worley, Neuron, 2001, 30; 227-40, Kawashima et al., PNAS, 2009, 106(1); 316-21 and Bramham et al., Exp Brain Res, 2010, 200; 125-40).
Animals were killed 60 min after the injection of the drugs by decapitation and the brains were dissected into […] different areas: Limbic system (containing nucleus accumbens, most parts of the olfactory tubercle, ventral pallidum), striatum, frontal cortex, hippocampus and the remaining cortex.
Total RNA was prepared by the guanidin isothiocyanate method (Chomczynski P and Sacchi N, Anal Biochem, 1987, 162(1); 156-9). RNA pellets were solved in RNAse-free water and stored at −80° C. The sample concentration was determined spectrophotometrically by a NanoDrop ND1000 (Saveen Werner). A quality indicator number and an integrity number of r-RNA were measured with an Experion (Bio-rad).
A two-step reversed transcription was performed by using a SuperScript III kit (Invitrogen). 1 μg of total RNA was reverse transcribed with 5 μl 2XRT Reaction Mix, 1 μl RT Enzyme Mix, in a total volume adjusted to 10 μl with DEPC-treated water. 1 U of E. coli RNase H was added. c-DNA was diluted 40 times and stored at −20° C.
Three sequences (one gene of interest and two reference genes) were amplified together in a triplex PCR-reaction. For real-time PCR measurements: 5 μl of c-DNA reaction was amplified in a 20 μl reaction mixture containing 10 μl PerfeCta Multiplex qPCR Supermix (Quanta, VWR), 3.5 μl RNAse-free water, 0.15 μM of each primer and 0.1 μM of each probe. Real-time PCR was measured on CFX96 (Bio-rad) using the following settings for all genes: 3 min pre-incubation at 95° C. followed by 40 cycles of denaturation at 95° C. for 15 s, annealing and elongation at 60° C. for 1 minute.
Reference genes are HPRT and cyclophilin.
Compounds and saline solution (control) as indicated above were administered s.c. 65 min before sacrificing the animals. Results are presented as percent of control means±SEM. Statistical significance was assessed using Student's t-test (2 tailed) vs controls. * denotes p<0.05, ** p<0.01, n=5, *** p<0.001, n=5.
Correct PCR products are confirmed by agarose gel electrophoresis (2%) PCR products are purified with PCR purification kit from Qiagen (Valencia, Calif., USA). All genes are sequenced at MWG, Germany. The amounts of gene of interests are normalized with the two reference genes HPRT and cyclophilin A with the equation delta-delta CT.

inhibition at 10 µM [1] [%] | inhibition of the binding of a radioactively labeled ligand [2] | pIC50 [1] | fold more potent than Example 1A at DAT ([1]; ratio of IC50 values of Table 6) [fold] | Compound | Arc frontal cortex ± SEM (Arc mRNA) | Arc striatum ± SEM (Arc mRNA)
17 |  |  |  | CCN1CC(Oc2c(F)c(F)cc(F)c2F)C1 [Example 39, 1-ethyl-3-(2,3,5,6-tetrafluorophenoxy)azetidine hydrochloric acid salt] |  | 
10 | more than 93% |  |  | Fc1cc(F)c(F)c(OC2CNC2)c1F [Example 3, 3-(2,3,5,6-tetrafluorophenoxy)-azetidine hydrochloric acid salt] | 149 ± 11** % of control means | 141 ± 9.0** % of control means
49 | more than 93% | 4.68 |  | Fc1cccc(OC2CNC2)c1F [Example 1A, 3-(2,3-difluorophenoxy)azetidine hydrochloric acid salt] | 236 ± 9*** % of control means | 149 ± 11* % of control means
12 |  |  |  | Fc1cc(F)c(F)c(OC2CNC2)c1 [Example 2, 3-(2,3,5-trifluorophenoxy)azetidine hydrochloric acid salt] | 96 ± 20 % of control means | 104 ± 12 % of control means
 |  |  |  | Fc1cc(F)cc(OC2CNC2)c1.O=C(O)C(O)C(O)C(=O)O [Example 52B, 3-(3,5-difluorophenoxy)azetidine (+)-tartaric acid salt] | 148 ± 6.9** % of control means | 106 ± 7.1 % of control means
25 | more than 93% |  |  | Fc1cc(F)cc(OC2CNC2)c1 [Example 52C, 3-(3,5-difluorophenoxy)azetidine hydrochloric acid salt] |  | 
25 | more than 93% |  |  | Fc1ccc(F)c(OC2CNC2)c1F [Example 20, 3-(2,3,6-trifluorophenoxy)azetidine hydrochloric acid salt] |  | 
79 |  | 5.46 | 6 | Clc1ccc(OC2CNC2)cc1Cl [Reference Compound, 3-(3,4-dichlorophenoxy)azetidine hydrochloric acid salt, reference compound] |  | 
